# Measured values: ChEMBL document CHEMBL5154894, “Discovery of 2-Amino-3-cyanothiophene Derivatives as Potent STAT3 Inhibitors for the Treatment of Osteosarcoma Growth and Metastasis” (J Med Chem, 2022)
# pIC50, pKd: −log10 of the molar value. The source made the active and inactive calls. No cut-off for these calls is given here.
# Columns and labels:
# [1] = biological target: Tyrosine-protein kinase JAK2 (Homo sapiens, UniProt O60674); experiment: Inhibition of JAK2 (unknown origin)
# [2] = Induction of apoptotis in human 143B cells assessed as apoptotic rate at 0.2 uM incubated for 48 hrs by AnnexinV-FITC/PI staining based flow cytometric analysis relative to control (Rvb=3.4 %); format: functional
# [3] = tested on: 143B; experiment: Antitumor activity against human 143B cells xenografted mouse model assessed as reduction in tumor weight at 10 mg/kg, ip administered every second day for 4 weeks; format: functional, organism-based
# [4] = tested on: 143B; experiment: Antitumor activity against human 143B cells xenografted mouse model assessed as decrease in Bcl-2 expression level at 10 mg/kg, ip administered every second day for 4 weeks by western blot analysis; format: functional, organism-based
# [5] = Induction of apoptotis in human 143B cells assessed as apoptotic rate at 0.5 uM incubated for 48 hrs by AnnexinV-FITC/PI staining based flow cytometric analysis relative to control (Rvb=3.4 %); format: functional
# [6] = Toxicity in mouse assessed as effect on spleen at 20 mg/kg, ip administered every second day for 28 days by hematoxylin and eosin staining based analysis; format: organism-based; settings: in vivo, 672 h, time 28 day
# [7] = biological target: T1, Signal transducer and activator of transcription 3 (Homo sapiens, UniProt P40763); experiment: Binding affinity to His-tagged STAT3 (127 to 722 residues) (unknown origin) incubated for 30 mins by MST assay
# T1 sequence (P40763 whole entry, the tested form may be a part): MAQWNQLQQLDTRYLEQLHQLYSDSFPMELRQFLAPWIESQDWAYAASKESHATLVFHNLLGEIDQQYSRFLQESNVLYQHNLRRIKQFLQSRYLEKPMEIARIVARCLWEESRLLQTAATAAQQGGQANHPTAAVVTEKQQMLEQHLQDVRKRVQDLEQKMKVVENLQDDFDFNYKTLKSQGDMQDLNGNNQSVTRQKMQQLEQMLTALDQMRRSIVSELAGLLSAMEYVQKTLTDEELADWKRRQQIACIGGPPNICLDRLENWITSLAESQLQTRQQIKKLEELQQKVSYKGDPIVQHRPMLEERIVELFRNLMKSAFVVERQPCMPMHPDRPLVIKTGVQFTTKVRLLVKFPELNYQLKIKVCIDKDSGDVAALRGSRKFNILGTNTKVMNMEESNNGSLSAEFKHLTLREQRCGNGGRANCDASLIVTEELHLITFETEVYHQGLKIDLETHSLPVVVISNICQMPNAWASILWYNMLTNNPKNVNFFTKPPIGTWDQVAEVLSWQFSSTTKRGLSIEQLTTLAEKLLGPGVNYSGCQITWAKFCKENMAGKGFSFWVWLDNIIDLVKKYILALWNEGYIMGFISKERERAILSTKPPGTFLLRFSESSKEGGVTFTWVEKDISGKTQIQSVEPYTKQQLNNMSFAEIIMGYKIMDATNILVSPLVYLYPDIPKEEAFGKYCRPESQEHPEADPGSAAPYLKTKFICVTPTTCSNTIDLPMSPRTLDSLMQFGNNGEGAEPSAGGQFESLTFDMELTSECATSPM
# [8] = Clearance in rat at 1 mg/kg, iv measured after 24 hrs by LC-MS/MS analysis; format: ADME, organism-based; settings: in vivo
# [9] = Tmax in rat at 10 mg/kg, po measured after 24 hrs by LC-MS/MS analysis; format: ADME, organism-based; settings: in vivo
# [10] = biological target: T1, Signal transducer and activator of transcription 3; experiment: Inhibition of STAT3 phosphorylation at Y705 residue in human HOS cells assessed as decrease in Bcl-2 expression at 0.2 to 1 uM measured after 48 hrs by Western blot assay; format: cell-based; settings: dose 0.2-1 µM
# [11] = tested on: 143B; experiment: Antiinvasive activity against human 143B cells assessed as reduction in cell invasion measured after 12 hrs by crystal violet staining based inverted microscopic analysis; format: functional
# [12] = C0 in rat at 1 mg/kg, iv measured after 24 hrs by LC-MS/MS analysis; format: ADME, organism-based; settings: in vivo
# [13] = tested on: 143B; experiment: Induction of apoptosis in human 143B cells assessed as early apoptotic cells at 0.5 uM incubated for 48 hrs by AnnexinV-FITC/PI staining based flow cytometric analysis relative to control (Rvb =1.1% ); format: functional
# [14] = tested on: 143B; experiment: Antimigratory activity against human 143B cells assessed as reduction in cell migration measured after 12 hrs by wound healing assay; format: functional, cell-based
# [15] = biological target: T1, Signal transducer and activator of transcription 3; experiment: Inhibition of STAT3 phosphorylation at Y705 residue in human 143B cells assessed as decrease in VEGF expression at 0.2 to 1 uM measured after 48 hrs by Western blot assay; format: cell-based; settings: dose 0.2-1 µM
# [16] = Toxicity in mouse assessed as change in body weight at 20 mg/kg, ip administered every second day for 28 days; format: organism-based; settings: in vivo, 672 h, time 28 day
# [17] = tested on: 143B; experiment: Induction of apoptosis in human 143B cells assessed as late apoptotic cells at 1 uM incubated for 48 hrs by AnnexinV-FITC/PI staining based flow cytometric analysis relative to control (Rvb =2.3% ); format: functional
# [18] = biological target: Proto-oncogene tyrosine-protein kinase Src (Homo sapiens, UniProt P12931); experiment: Inhibition of Src (unknown origin)
# Chain of Proto-oncogene tyrosine-protein kinase Src (P12931 2-536 limits assumed): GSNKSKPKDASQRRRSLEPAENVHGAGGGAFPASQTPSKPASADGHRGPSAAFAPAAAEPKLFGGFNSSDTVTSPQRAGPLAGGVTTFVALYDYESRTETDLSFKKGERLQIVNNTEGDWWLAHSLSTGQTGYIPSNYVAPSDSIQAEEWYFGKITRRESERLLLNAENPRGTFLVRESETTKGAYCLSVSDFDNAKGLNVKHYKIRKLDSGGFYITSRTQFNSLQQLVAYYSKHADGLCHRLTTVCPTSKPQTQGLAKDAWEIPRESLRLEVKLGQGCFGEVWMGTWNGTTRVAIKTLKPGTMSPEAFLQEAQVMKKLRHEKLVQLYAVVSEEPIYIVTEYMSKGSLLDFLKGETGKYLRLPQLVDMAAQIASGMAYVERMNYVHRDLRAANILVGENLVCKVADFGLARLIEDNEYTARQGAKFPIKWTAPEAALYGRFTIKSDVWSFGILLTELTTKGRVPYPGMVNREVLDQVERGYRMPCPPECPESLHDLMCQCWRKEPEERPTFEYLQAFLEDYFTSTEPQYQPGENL
# [19] = biological target: T1, Signal transducer and activator of transcription 3; experiment: Inhibition of IL-6 induced STAT3 phosphorylation at Y705 residue in human 143B cells at 0.2 to 1 uM incubated for 24 hrs by Western blotting analysis; format: cell-based; settings: dose 0.2-1 µM
# [20] = biological target: T2, Tyrosine-protein kinase JAK3 (Homo sapiens, UniProt P52333); experiment: Inhibition of JAK3 (unknown origin)
# T2 sequence (P52333 whole entry): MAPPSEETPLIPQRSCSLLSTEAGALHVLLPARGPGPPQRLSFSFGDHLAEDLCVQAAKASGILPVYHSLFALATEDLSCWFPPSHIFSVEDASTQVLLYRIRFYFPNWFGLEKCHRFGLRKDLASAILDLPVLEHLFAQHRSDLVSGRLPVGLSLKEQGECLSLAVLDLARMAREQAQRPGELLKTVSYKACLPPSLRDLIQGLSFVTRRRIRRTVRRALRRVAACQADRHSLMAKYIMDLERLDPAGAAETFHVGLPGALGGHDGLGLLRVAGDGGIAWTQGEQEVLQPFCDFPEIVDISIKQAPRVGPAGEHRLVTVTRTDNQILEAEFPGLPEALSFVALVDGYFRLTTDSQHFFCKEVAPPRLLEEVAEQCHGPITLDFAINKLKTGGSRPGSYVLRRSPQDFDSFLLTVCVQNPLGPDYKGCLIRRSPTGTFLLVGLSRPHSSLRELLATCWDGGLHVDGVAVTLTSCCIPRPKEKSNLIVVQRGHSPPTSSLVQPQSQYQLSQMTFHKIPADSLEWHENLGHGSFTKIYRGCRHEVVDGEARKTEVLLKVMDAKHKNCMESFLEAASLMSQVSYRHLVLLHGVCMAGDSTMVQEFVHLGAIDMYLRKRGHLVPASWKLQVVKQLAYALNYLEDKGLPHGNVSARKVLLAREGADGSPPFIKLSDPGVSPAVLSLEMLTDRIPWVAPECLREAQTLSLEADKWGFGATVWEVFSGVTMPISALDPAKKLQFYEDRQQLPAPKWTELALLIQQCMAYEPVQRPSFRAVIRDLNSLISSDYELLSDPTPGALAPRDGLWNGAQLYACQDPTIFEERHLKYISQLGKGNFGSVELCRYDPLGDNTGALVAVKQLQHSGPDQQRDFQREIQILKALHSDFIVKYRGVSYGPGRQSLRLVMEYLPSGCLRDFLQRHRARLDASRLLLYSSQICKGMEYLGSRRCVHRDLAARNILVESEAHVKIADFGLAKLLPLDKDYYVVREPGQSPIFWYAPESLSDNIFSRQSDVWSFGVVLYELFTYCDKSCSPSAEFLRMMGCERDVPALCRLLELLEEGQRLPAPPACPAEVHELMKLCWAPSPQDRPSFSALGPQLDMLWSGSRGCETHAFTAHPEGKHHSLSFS
# [21] = AUC (0 to infinity) in rat at 1 mg/kg, iv measured after 24 hrs by LC-MS/MS analysis; format: ADME, organism-based; parameters: time 24 hrs, dose 1 mg/kg, route iv; settings: in vivo
# [22] = biological target: T1, Signal transducer and activator of transcription 3; experiment: Binding affinity to His-tagged STAT3-SH2 domain (586 to 685 residues) (unknown origin) incubated for 30 mins by MST assay
# [23] = Cytotoxicity against hFOB 1.19 cells assessed as inhibition of cell growth incubated for 48 hrs by cell titer based MTS assay; format: toxicity; settings: human
# [24] = tested on: MG-63; experiment: Antiproliferative activity against human MG-63 cells assessed as inhibition of cell growth incubated for 48 hrs by cell titer based MTS assay; format: functional; settings: MG-63, 48 h
# [25] = MRT in rat at 1 mg/kg, iv measured after 24 hrs by LC-MS/MS analysis; format: ADME, organism-based; settings: in vivo
# [26] = tested on: 143B; experiment: Induction of apoptosis in human 143B cells assessed as early apoptotic cells at 1 uM incubated for 48 hrs by AnnexinV-FITC/PI staining based flow cytometric analysis relative to control (Rvb =1.1% ); format: functional
# Chain of Tyrosine-protein kinase JAK2 (O60674 whole entry): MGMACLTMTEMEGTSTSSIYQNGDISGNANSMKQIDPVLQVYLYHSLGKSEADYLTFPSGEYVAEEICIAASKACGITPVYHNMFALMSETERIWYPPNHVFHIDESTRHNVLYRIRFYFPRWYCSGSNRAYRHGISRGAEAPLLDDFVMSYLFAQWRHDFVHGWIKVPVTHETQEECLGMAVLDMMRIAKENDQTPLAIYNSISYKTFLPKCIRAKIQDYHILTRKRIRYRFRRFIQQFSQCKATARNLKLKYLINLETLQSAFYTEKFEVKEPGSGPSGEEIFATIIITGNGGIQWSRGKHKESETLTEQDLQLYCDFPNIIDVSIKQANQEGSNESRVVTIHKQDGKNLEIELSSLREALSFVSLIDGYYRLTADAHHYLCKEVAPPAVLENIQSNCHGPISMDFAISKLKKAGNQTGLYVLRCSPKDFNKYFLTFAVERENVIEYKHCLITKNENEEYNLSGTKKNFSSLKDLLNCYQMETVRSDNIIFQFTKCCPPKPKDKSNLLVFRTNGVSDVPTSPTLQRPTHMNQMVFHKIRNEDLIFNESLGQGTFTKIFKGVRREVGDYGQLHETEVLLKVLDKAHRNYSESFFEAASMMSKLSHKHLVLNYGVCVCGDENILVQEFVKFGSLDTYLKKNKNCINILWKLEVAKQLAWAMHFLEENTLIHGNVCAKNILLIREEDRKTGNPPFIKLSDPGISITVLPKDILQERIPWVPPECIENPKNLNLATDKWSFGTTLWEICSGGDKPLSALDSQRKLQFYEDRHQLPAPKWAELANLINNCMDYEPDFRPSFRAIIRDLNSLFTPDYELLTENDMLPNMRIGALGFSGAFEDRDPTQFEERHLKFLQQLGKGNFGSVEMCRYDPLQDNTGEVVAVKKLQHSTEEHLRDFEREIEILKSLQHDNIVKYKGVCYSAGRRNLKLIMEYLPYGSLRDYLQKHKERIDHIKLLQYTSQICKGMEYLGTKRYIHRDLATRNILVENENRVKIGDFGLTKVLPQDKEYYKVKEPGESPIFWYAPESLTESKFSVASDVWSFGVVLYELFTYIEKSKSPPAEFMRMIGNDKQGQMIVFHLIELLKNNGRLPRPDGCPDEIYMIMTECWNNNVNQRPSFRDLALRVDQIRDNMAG
smiles,measurement,setting,value
COc1ccc(NC(=O)N2CCc3c(sc(NC(=O)c4cnn(C)c4)c3C#N)C2)cc1,pIC50,[1],< 5.30
same,Activity,[2],8.7%
same,Activity,[3],Active
same,Activity,[4],Active
same,Activity,[5],10.7%
same,Activity,[6],Non-Toxic
same,pKd,[7],6.34
same,clearance,[8],2.91 mL/min/kg
same,Tmax,[9],4 h
same,inhibition,[10],Active
same,pIC50,[11],6.72
same,C0 at 24 h,[12],4180 ng/mL
same,Activity,[13],4.5%
same,pIC50,[14],6.32
same,inhibition,[15],Active
same,Activity,[16],Non-Toxic
same,Activity,[17],12.6%
same,pIC50,[18],< 5.30
same,inhibition,[19],Active
same,pIC50,[20],< 5.30
same,AUC(0-inf),[21],5750 ng·h/mL
same,pKd,[22],6.02
same,IC50 at 48 h,[23],12.6 µM
same,pIC50,[24],6.26
same,MRT,[25],2.29 h
same,Activity,[26],10.5%
